Measured values from patent publication US6015805A, “17β-nitro-11β-arylisteroids and their derivatives having agonist or antagonist hormonal properties” (Research Triangle Research North Carolina, priority 1999, dated 2000).

Experiments:
progestin receptor (rPR) = target: T1, progestin receptor (rPR) (Oryctolagus cuniculus, UniProt P06186); experiment: Receptor binding (rabbit), progestin receptor; details: for Ratio PR/GR: ratio of rPR to rGR relative affinities; for Relative Binding Affinity, rPR, Relative Affinity (Progesterone): relative to progesterone = 100, rabbit progestin receptor
T1 construct: hormone receptors for progestins and glucocorticoids from rabbits; from tissue; host or cells: rabbit
T1 sequence (P06186 1-930): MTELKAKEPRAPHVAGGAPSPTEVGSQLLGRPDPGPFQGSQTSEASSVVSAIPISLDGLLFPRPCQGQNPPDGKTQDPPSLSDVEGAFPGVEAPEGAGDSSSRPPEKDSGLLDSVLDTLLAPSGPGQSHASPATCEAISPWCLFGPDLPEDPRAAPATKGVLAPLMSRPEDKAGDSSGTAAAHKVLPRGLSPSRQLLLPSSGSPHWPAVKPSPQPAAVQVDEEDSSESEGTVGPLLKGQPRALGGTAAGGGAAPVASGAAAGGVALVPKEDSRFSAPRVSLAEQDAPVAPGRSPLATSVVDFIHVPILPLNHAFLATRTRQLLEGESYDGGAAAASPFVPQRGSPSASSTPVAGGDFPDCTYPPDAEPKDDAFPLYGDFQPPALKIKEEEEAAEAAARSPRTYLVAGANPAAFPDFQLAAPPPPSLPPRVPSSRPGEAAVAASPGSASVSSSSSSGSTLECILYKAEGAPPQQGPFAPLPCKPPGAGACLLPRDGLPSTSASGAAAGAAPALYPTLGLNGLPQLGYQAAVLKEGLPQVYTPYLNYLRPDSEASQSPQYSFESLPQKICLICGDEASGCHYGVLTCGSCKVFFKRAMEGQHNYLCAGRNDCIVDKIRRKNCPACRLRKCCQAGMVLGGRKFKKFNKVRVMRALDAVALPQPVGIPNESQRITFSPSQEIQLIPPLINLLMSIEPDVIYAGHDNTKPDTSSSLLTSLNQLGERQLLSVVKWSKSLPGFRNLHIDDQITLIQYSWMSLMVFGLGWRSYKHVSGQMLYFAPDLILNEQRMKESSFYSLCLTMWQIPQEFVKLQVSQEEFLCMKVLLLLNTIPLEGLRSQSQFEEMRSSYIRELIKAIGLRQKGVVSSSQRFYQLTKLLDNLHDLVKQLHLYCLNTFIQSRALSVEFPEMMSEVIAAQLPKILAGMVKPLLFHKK

[1] = target: T2, glucocorticoid receptor (rGR) (Oryctolagus cuniculus, UniProt P59667); experiment: Receptor binding (rabbit), glucocorticoid receptor; details: relative to dexamethasone = 100
T2 construct: the source of the glucocorticoid receptor was the thymus of the estrogen-primed immature female rabbit; from tissue; host or cells: thymus of the estrogen-primed immature female rabbit
T2 sequence (P59667 1-772): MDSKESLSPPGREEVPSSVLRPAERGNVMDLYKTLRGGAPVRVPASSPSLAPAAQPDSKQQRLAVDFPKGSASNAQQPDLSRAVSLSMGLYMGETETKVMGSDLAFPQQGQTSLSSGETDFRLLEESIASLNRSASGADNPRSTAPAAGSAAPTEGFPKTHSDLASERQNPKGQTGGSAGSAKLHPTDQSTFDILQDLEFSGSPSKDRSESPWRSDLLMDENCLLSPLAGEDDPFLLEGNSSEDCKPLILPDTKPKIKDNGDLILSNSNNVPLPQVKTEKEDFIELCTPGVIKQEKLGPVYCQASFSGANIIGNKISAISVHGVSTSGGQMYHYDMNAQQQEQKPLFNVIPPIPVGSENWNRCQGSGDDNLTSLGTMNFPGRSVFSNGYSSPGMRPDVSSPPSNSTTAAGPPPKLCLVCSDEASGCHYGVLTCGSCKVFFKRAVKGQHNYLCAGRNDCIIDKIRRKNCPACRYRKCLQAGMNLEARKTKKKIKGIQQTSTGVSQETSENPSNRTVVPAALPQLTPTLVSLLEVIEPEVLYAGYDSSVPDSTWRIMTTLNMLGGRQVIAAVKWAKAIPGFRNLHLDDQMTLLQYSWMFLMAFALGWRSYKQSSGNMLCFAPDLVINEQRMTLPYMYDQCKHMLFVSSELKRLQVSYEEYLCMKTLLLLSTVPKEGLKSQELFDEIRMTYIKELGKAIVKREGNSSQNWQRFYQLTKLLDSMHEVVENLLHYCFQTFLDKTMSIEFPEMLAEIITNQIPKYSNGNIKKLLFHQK
Protocol: The affinity of the compounds for hormone receptors for progestins and glucocorticoids from rabbits was determined by standard procedures similar to those that have been described in C. E. Cook, et al., Human Reproduction, Volume 9, supplement 1, pp. 32-39 (1994). However, the source of the glucocorticoid receptor was the thymus of the estrogen-primed immature female rabbit. The affinity of the compounds for the human progesterone hormone receptor was determined by standard procedures similar to those that have been described in Horwitz, et al., Cell, 28: 633-42 (1982) and Mockus, et al., Endocrinology, 110: 1564-71 (1982). The receptor was obtained in cytosol from human T-47D breast cells and [^3 H]-R5020 was used as the radioligand. T47D cells (1 billion/mL) were homogenized in TEDG buffer (10 mM Tris, 1.5 mM EDTA, 1 mM dithiothreitol, 1 mM sodium molybdate, and 10% glycerol) using a Dounce pestle A, and the homogenate was centrifuged at 34,000×g for 1 hour. The supernatant was stored at -80° C. An aliquot of receptor preparation was combined with test compound, 0.4 nM [^3 H]-R5020, and TEDG buffer to a final volume of 150 ,μL and incubated for 4 hours at 4° C. in microtiter plates. At the end of incubation 40 μL 40% polyethylene glycol and 15 μL 1% human gamma globulin was added to the incubate and the contents of each well were harvested onto double thick B filter mats (Wallac LKB) using a TomTec harvester. A film of Meltilux scintillant wax was applied to the dried filter mats and the mats were counted in a scintillation counter to determine inhibition of [^3 H]-R5020 binding. Data are expressed as lC50 values, i.e., the concentration of compound that inhibits radioligand binding by 50%.

rabbits [2] = experiment: Anti-McGinty assay (antiprogestational activity, test compound plus progesterone); format: in vivo, rabbit; set-up: key to McPhail Index, Anti-McGinty Assay, Standard / McPhail Index, Anti-McGinty Assay (Antagonist): McPhail scoring scale for progestational endometrial response; details: for McPhail Index, Anti-McGinty Assay (Antagonist): plus progesterone
Protocol: (§1) Progestational activity and antiprogestational activity were determined in rabbits by means of the McGinty test (test compound alone, procedure of McGinty et al., Endocrinology, 24: 829-832 (1939)) or anti-McGinty test (test compound plus progesterone, procedure of Tamara et al., Jpn. J. Fertil Steril 24: 48-81 (1979)). Results were scored according to McPhail (McPhail, J Physiol., 83: 146 (1934)). These are standard procedures known to those skilled in the art. The results of these assays are shown in Tables 4 (agonist activity) and 5 (antagonist activity). […] Physiol, 83: 146 (1934)).

rabbits [3] = experiment: McGinty assay (progestational activity, test compound alone); format: in vivo, rabbit; set-up: key: McPhail scoring scale for progestational endometrial response
Protocol: as §1

| SMILES | Ratio PR/GR (progestin receptor (rPR)) | Relative Binding Affinity, rPR, Relative Affinity (Progesterone) (progestin receptor (rPR)) | Relative Binding Affinity, rGR, Relative Affinity (Dexamethasone) [1] | McPhail Index, Anti-McGinty Assay (Antagonist) (rabbits [2]; dose 0.3 micrograms) | McPhail Index, Anti-McGinty Assay (Antagonist) (rabbits [2]; dose 3 micrograms) | McPhail Index, Anti-McGinty Assay (Antagonist) (rabbits [2]; dose 30 micrograms) | McPhail Index, McGinty Assay (Agonist) (rabbits [3]; dose 0.3 micrograms) | McPhail Index, McGinty Assay (Agonist) (rabbits [3]; dose 3 micrograms) | McPhail Index, McGinty Assay (Agonist) (rabbits [3]; dose 30 micrograms) | agonist/antagonist profile (rabbits [2]; in words, McGinty and anti-McGinty tests) | separation of progestin and glucocorticoid receptor affinity (progestin receptor (rPR); in words) | antiprogestational activity in the anti-McGinty assay (rabbits [2]; in words) |
| --- | --- | --- | --- | --- | --- | --- | --- | --- | --- | --- | --- | --- |
| CC(=O)c1ccc([C@H]2C[C@@]3(C)[C@@H](CC[C@]3(CCCO)[N+](=O)[O-])[C@@H]3CCC4=CC(=O)CCC4=C32)cc1 [I 4-CH3 CO H O H --(CH2)3 OH, 11β-(4-Acetylphenyl)-17α-(3-hydroxypropyl)-17β-nitroestra-4,9-dien-3-one] | 17.7 | 53 | 3 | 2.93 ± 0.12 | 2.43 ± 0.6 | 1.60 ± 0.66 | 0 ± 0 | 0 ± 0 | 0 ± 0 | – | – | – |
| CC#C[C@]1([N+](=O)[O-])CC[C@H]2[C@@H]3CCC4=CC(=O)CCC4=C3[C@@H](c3ccc(C(C)=O)cc3)C[C@@]21C [I 4-CH3 CO H O H --CC--CH3, 11β-(4-Acetylphenyl)-17β-nitro-17α-(1-propynyl)estra-4,9-dien-3-one] | 7.7 | 153 | 20 | 2.173 ± 0.42 | 2.47 ± 0.15 | 0.13 ± 0.12 | 0.13 ± 0.12 | 1.33 ± 0.35 | 0.97 ± 0.75 | mixed (agonist/antagonist) profile | – | – |
| CC(=O)c1ccc([C@H]2C[C@@]3(C)[C@@H](CC[C@]3(/C=C/CO)[N+](=O)[O-])[C@@H]3CCC4=CC(=O)CCC4=C32)cc1 [I 4-CH3 CO H O H CH=CHCH2 OH, 11β-(4-acetylphenyl)-17α-(E-3-hydroxy-1-propenyl)-17β-nitroestra-4,9-dien-3-one] | 6.5 | 26 | 4 | 1.53 ± 0.68 | 1.76 ± 0.45 | 2.3 ± 0.0 | 0 ± 0 | 0 ± 0 | 0 ± 0 | – | – | – |
| CN(C)c1ccc([C@H]2C[C@@]3(C)[C@@H](CC[C@]3(CCCO)[N+](=O)[O-])[C@@H]3CCC4=CC(=O)CCC4=C32)cc1 [I 4-Me2 N H O H --(CH2)3 OH, 11β-[4-(N,N-Dimethylamino)phenyl]-17α-(3-hydroxypropyl)-17β-nitroestra-4,9-dien-3-one] | 2.3 | 170 | 74 | 1.83 ± 0.48 | 1.87 ± 0.98 | 0.43 ± 0.31 | 0 ± 0 | 0 ± 0 | 0.03 ± 0.057 | – | – | – |
| CC1=[N+]([O-])C2(CC1)CCC1C3CCC4=CC(=O)CCC4=C3C(c3ccc(N(C)C)cc3)CC12C (stereo not drawn) [II 4-Me2 N H O H -- CH3, 3',4'-dihydro-11β-(4-(N,N-dimethylamino)phenyl)-5'-methyl-1'-oxo-spiro[estra-4,9-dien-17β,2'(2'H)-pyrrole]-3-one] | 78.5 | 157 | 2 | 2.03 ± 0.14 | 1.9 ± 0.85 | 0 ± 0 | 0 ± 0 | 0 ± 0 | 0 ± 0 | – | excellent separation of progestin and glucocorticoid receptor affinity | potent antiprogestin in the anti-McGinty assay |
